{
  "source": "patent US9150899B2",
  "about": "“Identification of compounds modifying a cellular response” (2cureX, priority 2004, dated 2015)",
  "tested_on": "GFP expressing U2OS cells and GFP expressing Hek293 cells",
  "assay": "Screening of adhesion D-amino peptide library for low fluorescence/high adherence properties",
  "type": "cell-based, Human",
  "details": "re-synthesized adhesion peptides on PEGA beads; six re-synthesized plus four additional peptides compared",
  "protocol": "Approx. 100 adhesion peptide library beads were mixed with 1×10E6 cells (BHK, CHO, U2OS, Hek) in each well of a Falcon 12 well plate using 2 ml growth medium. The adhesion peptide library was prepared according to the general methods for solid phase peptide synthesis outlined above. The library consisted of heptamers of D-amino acids. The peptide library beads were PEGA beads each coupled to a potential adhesion peptide. The cells and beads were mixed gently every 15 min for 2 hrs. Supernatant with non-attached cells were removed and new growth medium added. Cells/beads were incubating for another 16 hrs. (37° C., 5% CO2). Cell adhesive beads were identified using a microscope with 10× objective and positive beads were transferred to a filter paper (to suck off medium). Peptides were identified by amino acid sequencing.\nAn adhesion D-amino peptide library was synthesized (500.000 members) as described above in Example 2a and screened for low fluorescence/high adherence properties. This was done in 4 steps: • 1) Selection of low fluorescent beads by Fluorescence Activated Bead Sorting (FABS). […]\nThe 150.000 low fluorescent beads were incubated with GFP expressing U2OS cells followed by FABS sorting for high fluorescence (high cell adhesion). […] 47 beads with high cell adhesion properties were isolated using a fluorescence microscope. • 4) Sequence elucidation and re-synthesis of selected peptides. […]",
  "note": "Non-standard residues stand in square brackets, D forms with d. No end group written: not given here.",
  "data": [
    {"substance": "SEQ ID 35: adhesion peptide arg gln arg ile arg (D-amino acids) ([dR][dQ][dR][dI][dR])", "values": [
      {"measurement": "overall performance (low fluorescence/high adherence properties)", "result": "best overall performance"}
    ]}
  ]
}
